This note sets out measurements from US20230114728A1 (Venatorx Pharmaceuticals, Inc., priority 2019, published 2023).

For experiment [1], the system named is E. coli AG100A. Nature of the experiment: Broth microdilution MIC in CAMHB. The experiment is classed as cell-based. Conditions: Escherichia coli, read-out: Minimum Inhibitory Concentration, E. coli AG100A. In a few lines: (§1)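 Colonies from cation-adjusted Mueller Hinton agar are grown in broth (3-5 h, 37° C), adjusted by OD600, and added at 2-8×10^5 CFU/mL to 2-fold compound dilutions. After 16-20 h at 37° C, the lowest concentration without growth is taken as MIC.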

For experiment [2], the system named is E. coli AG100. Nature of the experiment: Broth microdilution MIC in CAMHB. The experiment is classed as cell-based. The note with it: Escherichia coli; E. coli AG100 (wild-type parent); MHB; read-out: Minimum Inhibitory Concentration, E. coli AG100. In a few lines: as §1
For experiment [3], the system named is E. coli ATCC 25922. Nature of the experiment: Broth microdilution MIC in CAMHB. The experiment is classed as cell-based. Conditions: Escherichia coli, ATCC25922; E. coli ATCC 25922; MHB; read-out: Minimum Inhibitory Concentration, E. coli 25922. In a few lines: as §1
The subject of experiment [4] is E. coli D22. Nature of the experiment: Broth microdilution MIC in CAMHB. The format is cell-based. Conditions: Escherichia coli; E. coli D22 (hyper-permeable); MHB; read-out: Minimum Inhibitory Concentration, E. coli D22. In a few lines: as §1
Experiment [5] deals with K. pneumoniae 848844 producing SHV-11 and KPC-2. Nature of the experiment: Broth microdilution MIC in CAMHB. The note with it: Klebsiella pneumoniae, read-out: Minimum Inhibitory Concentration, K. pneumoniae 848844. The format is cell-based. The essentials: as §1
The test system of experiment [6] is K. pneumoniae UMM producing SHV-5 and KPC-2. Nature of the experiment: Broth microdilution MIC in CAMHB. The experiment is classed as cell-based. Conditions: Klebsiella pneumoniae, read-out: Minimum Inhibitory Concentration, K. pneumoniae UMM. In a few lines:
as §1

The test system of experiment [7] is P. aeruginosa (ΔmexAB-oprM). Nature of the experiment: Broth microdilution MIC in CAMHB. The format is cell-based. The note with it: Pseudomonas aeruginosa, read-out: Minimum Inhibitory Concentration, P. aeruginosa ΔmexAB-OprM. In a few lines:
as §1

Experiment [8] concerns P. aeruginosa ATCC 27853. Nature of the experiment: Broth microdilution MIC in CAMHB. The format is cell-based. Conditions: Pseudomonas aeruginosa, ATCC27853; MHB; read-out: Minimum Inhibitory Concentration, P. aeruginosa ATCC 27853. The essentials:
as §1

The target of experiment [9] is T1, P. aeruginosa PBP3 (Pseudomonas aeruginosa, UniProt G3XD46).
T1 construct: made in house
Nature of the experiment: Bocillin-FL fluorescence polarization competition binding assay, P. aeruginosa PBP3. The note with it: fluorescence polarization competition binding assay using Bocillin-FL. In a few lines: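 Binding of boronic acid inhibitors to purified Pseudomonas aeruginosa (PA01) PBP3 was measured by fluorescence polarization competition with Bocillin-FL, a fluorescent penicillin V. Reactions of 80 μl contained 0.75 μM PBP3 and 0.1 μM Bocillin-FL in 50 mM Hepes (pH 8.0), 300 mM NaCl and 5% (v/v) glycerol, in black 384-well plates. FP (Excitation 490 nm, Emission 520 nm) was read for up to 60 minutes. EC50 is the concentration that halves PBP-bound Bocillin-FL.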

Structures are written as SMILES. In brackets after ≈: the same amount, converted by molar mass.

T1 sequence (G3XD46 whole entry): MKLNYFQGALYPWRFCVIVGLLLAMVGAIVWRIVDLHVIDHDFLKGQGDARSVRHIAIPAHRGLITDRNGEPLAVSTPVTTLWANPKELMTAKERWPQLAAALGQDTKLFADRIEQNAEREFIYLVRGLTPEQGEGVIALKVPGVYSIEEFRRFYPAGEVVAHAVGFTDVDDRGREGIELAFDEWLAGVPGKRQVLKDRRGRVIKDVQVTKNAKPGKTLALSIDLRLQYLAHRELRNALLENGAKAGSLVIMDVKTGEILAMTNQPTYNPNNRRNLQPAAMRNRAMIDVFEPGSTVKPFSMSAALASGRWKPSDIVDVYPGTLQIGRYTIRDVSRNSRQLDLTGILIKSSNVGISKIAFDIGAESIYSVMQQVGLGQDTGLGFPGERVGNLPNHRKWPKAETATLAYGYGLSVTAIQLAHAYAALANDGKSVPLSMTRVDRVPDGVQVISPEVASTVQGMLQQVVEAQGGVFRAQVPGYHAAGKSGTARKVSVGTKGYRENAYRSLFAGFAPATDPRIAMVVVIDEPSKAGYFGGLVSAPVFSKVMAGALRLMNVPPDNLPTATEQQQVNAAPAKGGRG

For the compound `CCN1CCN(C(=O)N[C@@H](C(=O)N[C@H]2Cc3cccc(C(=O)O)c3OB2O)c2c(O)cc(O)cc2F)C(=O)C1=O` (single isomer, unassigned) [Example 182], the MIC was 0.5 to 1 µg/mL (≈ 0.896 to 1.79 µM) in [1]; 8 to 16 µg/mL (≈ 14.3 to 28.7 µM) in experiment [2]; 8 to 16 µg/mL (≈ 14.3 to 28.7 µM) in experiment [3]; 0.5 to 1 µg/mL (≈ 0.896 to 1.79 µM) in [4]; 32 to 64 µg/mL (≈ 57.3 to 115 µM) in experiment [5]; 8 to 16 µg/mL (≈ 14.3 to 28.7 µM) in experiment [6]. The results for the MIC in experiment [7] and in experiment [8] were 8 to 16 µg/mL (≈ 14.3 to 28.7 µM) and greater than 128 µg/mL, respectively.
With `NCCN1CCN(C(=O)N[C@@H](C(=O)N[C@H]2Cc3cccc(C(=O)O)c3OB2O)c2ccc(O)c(Cl)c2F)C(=O)C1=O` (single isomer, unassigned) [Example 186], the “P. aeruginosa PBP3 Potency” value in experiment [9] is recorded as “D (D represents a potency <10 μM)”. Moreover, the MIC in [1] lay in the range of 2 to 4 µg/mL (≈ 3.38 to 6.76 µM); in experiment [2] it was 8 to 16 µg/mL (≈ 13.5 to 27 µM); in experiment [3], 8 to 16 µg/mL (≈ 13.5 to 27 µM); in [4], 2 to 4 µg/mL (≈ 3.38 to 6.76 µM); in experiment [5], 32 to 64 µg/mL (≈ 54.1 to 108 µM); in experiment [6], 32 to 64 µg/mL (≈ 54.1 to 108 µM). The MIC is 8 to 16 µg/mL (≈ 13.5 to 27 µM) in experiment [7] and 32 to 64 µg/mL (≈ 54.1 to 108 µM) in experiment [8].
Consider `CCN1CCN(C(=O)N[C@@H](C(=O)N[C@H]2Cc3ccc(F)c(C(=O)O)c3OB2O)c2c(Cl)cc(O)c(O)c2F)C(=O)C1=O` (single isomer, unassigned) [Example 207], for which the “P. aeruginosa PBP3 Potency” value in experiment [9] was “D (D represents a potency <10 μM)”.
Take `O=C(NCCCN1CCN(C(=O)NC(C(=O)N[C@H]2Cc3cccc(C(=O)O)c3OB2O)c2ncc(O)cc2F)C(=O)C1=O)c1ccc(O)c(O)c1Cl` (stereo partly drawn) [Example 1, (3R)-3-(2-(4-(3-(2-chloro-3,4-dihydroxybenzamido)propyl)-2,3-dioxopiperazine-1-carboxamido)-2-(3-fluoro-5-hydroxypyridin-2-yl)acetamido)-2-hydroxy-3,4-dihydro-2H-benzo[e][1,2]oxaborinine-8-carboxylic acid]: the “P. aeruginosa PBP3 Potency” value in experiment [9] is given as “D (D represents a potency <10 μM)”. Also, the MIC in [1] was 8 to 16 µg/mL (≈ 10.8 to 21.5 µM); in experiment [2], 32 to 64 µg/mL (≈ 43.1 to 86.2 µM); in experiment [3], greater than 128 µg/mL; in experiment [4] it was 8 to 16 µg/mL (≈ 10.8 to 21.5 µM); in experiment [5] it was 32 to 64 µg/mL (≈ 43.1 to 86.2 µM); in [6], 8 to 16 µg/mL (≈ 10.8 to 21.5 µM).
On to `C[C@H]1CN(CCNC(=O)c2ccc(O)c(O)c2Cl)C(=O)C(=O)N1C(=O)NC(C(=O)N[C@H]1Cc2cccc(C(=O)O)c2OB1O)c1ncc(O)cc1F` (stereo partly drawn) [Example 2, (3R)-3-(2-((S)-4-(2-(2-chloro-3,4-dihydroxybenzamido)ethyl)-6-methyl-2,3-dioxopiperazine-1-carboxamido)-2-(3-fluoro-5-hydroxypyridin-2-yl)acetamido)-2-hydroxy-3,4-dihydro-2H-benzo[e][1,2]oxaborinine-8-carboxylic acid], for which the “P. aeruginosa PBP3 Potency” value in experiment [9] is on record as “D (D represents a potency <10 μM)”. For the same compound, the MIC in experiment [1] was 0.5 to 1 µg/mL (≈ 0.673 to 1.35 µM); in experiment [2] it was 2 to 4 µg/mL (≈ 2.69 to 5.38 µM); in [3], 8 to 16 µg/mL (≈ 10.8 to 21.5 µM); in experiment [4], 2 to 4 µg/mL (≈ 2.69 to 5.38 µM); in [5], 8 to 16 µg/mL (≈ 10.8 to 21.5 µM); in experiment [6], 2 to 4 µg/mL (≈ 2.69 to 5.38 µM).
As for `O=C(NCCCN1CCN(C(=O)NC(C(=O)N[C@H]2Cc3ccc(F)c(C(=O)O)c3OB2O)c2ncc(O)cc2F)C(=O)C1=O)c1ccc(O)c(O)c1Cl` (stereo partly drawn) [Example 3, (3R)-3-(2-(4-(3-(2-chloro-3,4-dihydroxybenzamido)propyl)-2,3-dioxopiperazine-1-carboxamido)-2-(3-fluoro-5-hydroxypyridin-2-yl)acetamido)-7-fluoro-2-hydroxy-3,4-dihydro-2H-benzo[e][1,2]oxaborinine-8-carboxylic acid], in [9], the “P. aeruginosa PBP3 Potency” value is “D (D represents a potency <10 μM)”. In addition, the MIC in [1] was 32 to 64 µg/mL (≈ 42.1 to 84.1 µM); in [2], 32 to 64 µg/mL (≈ 42.1 to 84.1 µM); in [3], greater than 128 µg/mL; in [4], 32 to 64 µg/mL (≈ 42.1 to 84.1 µM); in experiment [5] it was 32 to 64 µg/mL (≈ 42.1 to 84.1 µM); in experiment [6], 32 to 64 µg/mL (≈ 42.1 to 84.1 µM).
Regarding `Nc1nc(C(NC(=O)N2CCN(CCNC(=O)c3ccc(O)c(O)c3Cl)C(=O)C2=O)C(=O)N[C@H]2Cc3ccc(F)c(C(=O)O)c3OB2O)c(F)s1` (stereo partly drawn) [Example 4, (3R)-3-(2-(2-amino-5-fluorothiazol-4-yl)-2-(4-(2-(2-chloro-3,4-dihydroxybenzamido)ethyl)-2,3-dioxopiperazine-1-carboxamido)acetamido)-7-fluoro-2-hydroxy-3,4-dihydro-2H-benzo[e][1,2]oxaborinine-8-carboxylic acid], in experiment [9], the “P. aeruginosa PBP3 Potency” value was “D (D represents a potency <10 μM)”.
For the compound `O=C(NCCN1CCN(C(=O)NC(C(=O)N[C@H]2Cc3ccc(F)c(C(=O)O)c3OB2O)c2ncc(O)cc2F)C(=O)C1=O)c1c(F)cc(O)c(O)c1Cl` (stereo partly drawn) [Example 5, (3R)-3-(2-(4-(2-(2-chloro-6-fluoro-3,4-dihydroxybenzamido)ethyl)-2,3-dioxopiperazine-1-carboxamido)-2-(3-fluoro-5-hydroxypyridin-2-yl)acetamido)-7-fluoro-2-hydroxy-3,4-dihydro-2H-benzo[e][1,2]oxaborinine-8-carboxylic acid], in experiment [9], the “P. aeruginosa PBP3 Potency” value was “D (D represents a potency <10 μM)”.
Same read-out and setting: the same measure for `Nc1nc(/C(=N/OC[C@H](NC(=O)c2ccc(O)c(O)c2Cl)C(=O)O)C(=O)N[C@H]2Cc3cccc(C(=O)O)c3OB2O)cs1` [Example 6, (R)-3-((Z)-2-(2-aminothiazol-4-yl)-2-(((S)-2-carboxy-2-(2-chloro-3,4-dihydroxybenzamido)ethoxy)imino)acetamido)-2-hydroxy-3,4-dihydro-2H-benzo[e][1,2]oxaborinine-8-carboxylic acid]: “D (D represents a potency <10 μM)”; for `NCCCN1CCN(C(=O)N[C@@H](C(=O)N[C@H]2Cc3cc(Cl)c(F)c(C(=O)O)c3OB2O)c2c(F)cc(O)c(O)c2Cl)C(=O)C1=O` [Example 190, (R)-3-((R)-2-(4-(3-aminopropyl)-2,3-dioxopiperazine-1-carboxamido)-2-(2-chloro-6-fluoro-3,4-dihydroxyphenyl)acetamido)-6-chloro-7-fluoro-2-hydroxy-3,4-dihydro-2H-benzo[e][1,2]oxaborinine-8-carboxylic acid]: “D (D represents a potency <10 μM)”.
As for `CCN1CCN(C(=O)N[C@@H](C(=O)N[C@H]2Cc3cc(Cl)c(F)c(C(=O)O)c3OB2O)c2c(F)cc(O)c(O)c2Cl)C(=O)C1=O` [Example 191, (R)-6-chloro-3-((R)-2-(2-chloro-6-fluoro-3,4-dihydroxyphenyl)-2-(4-ethyl-2,3-dioxopiperazine-1-carboxamido)acetamido)-7-fluoro-2-hydroxy-3,4-dihydro-2H-benzo[e][1,2]oxaborinine-8-carboxylic acid], the “P. aeruginosa PBP3 Potency” value in experiment [9] was “D (D represents a potency <10 μM)”.
With `CS(=O)(=O)N1CCN(C(=O)NC(C(=O)N[C@H]2Cc3ccc(F)c(C(=O)O)c3OB2O)c2c(Cl)cc(O)c(O)c2F)C1=O` (stereo partly drawn) [Example 208, (3R)-3-(2-(6-chloro-2-fluoro-3,4-dihydroxyphenyl)-2-(3-(methylsulfonyl)-2-oxoimidazolidine-1-carboxamido)acetamido)-7-fluoro-2-hydroxy-3,4-dihydro-2H-benzo[e][1,2]oxaborinine-8-carboxylic acid], in experiment [9], the “P. aeruginosa PBP3 Potency” value is “D (D represents a potency <10 μM)”.
The same measure, in the same setting: the same measure for `CCN1CCN(C(=O)N[C@@H](C(=O)N[C@H]2Cc3ccc(F)c(C(=O)O)c3OB2O)c2ccc(O)c(O)c2)C(=O)C1=O` [Example 211, (R)-3-((R)-2-(3,4-dihydroxyphenyl)-2-(4-ethyl-2,3-dioxopiperazine-1-carboxamido)acetamido)-7-fluoro-2-hydroxy-3,4-dihydro-2H-benzo[e][1,2]oxaborinine-8-carboxylic acid]: “D (D represents a potency <10 μM)”; for `NCCN1CCN(C(=O)N[C@@H](C(=O)N[C@H]2Cc3ccc(F)c(C(=O)O)c3OB2O)c2c(F)c(F)c(O)c(O)c2Cl)C(=O)C1=O` [Example 226, (R)-3-((R)-2-(4-(2-aminoethyl)-2,3-dioxopiperazine-1-carboxamido)-2-(2-chloro-5,6-difluoro-3,4-dihydroxyphenyl)acetamido)-7-fluoro-2-hydroxy-3,4-dihydro-2H-benzo[e][1,2]oxaborinine-8-carboxylic acid]: “B (B represents a potency between 30 μM and 500 μM inclusive)”.
